Measurements reported in ChEMBL document CHEMBL3867430, “Novel 3,4-seco bile acid diamides as selective anticancer proliferation and migration agents” (Eur J Med Chem, 2016).

Tests used:
[1] = Antiproliferative activity against human PC3M cells after 48 hrs by SRB assay; format: functional, cell-based; conditions: PC-3M
[2] = Antiproliferative activity against human HT-29 cells after 48 hrs by SRB assay; format: functional, cell-based; conditions: HT-29, 48 h
[3] = Antiproliferative activity against human ES2 cells after 48 hrs by SRB assay; format: functional, cell-based; conditions: ES-2, 48 h
[4] = Antiproliferative activity against HAF cells after 48 hrs by SRB assay; format: cell-based; conditions: Homo sapiens
[5] = Selectivity index, ratio of IC50 for HAF cells to IC50 for human PC3M cells; format: functional
[6] = Selectivity index, ratio of IC50 for HAF cells to IC50 for human HT-29 cells; format: functional
[7] = Selectivity index, ratio of IC50 for HAF cells to IC50 for human ES2 cells; format: functional

In the case of `C=C(C)C1CC[C@H]2[C@@H]3CC[C@H]([C@H](C)CCC(=O)N4CCN(C)CC4)[C@@]3(C)CC[C@@H]2[C@@]1(C)CCC(=O)N1CCN(C)CC1` (some centres undefined), the IC50 [1] is reported as 5.08 µM, the IC50 [2] is reported as 1.93 µM and the IC50 [3] is reported as 3.63 µM. For the same compound, the IC50 [4] was 15.5 µM, the “Ratio IC50” value [5] was 3 and the “Ratio IC50” value [6] was 8. For the same compound, the “Ratio IC50” value [7] was 4.3.

For `C=C(C)C1CC[C@H]2[C@@H]3CC[C@H]([C@H](C)CCCN4CCN(C)CC4)[C@@]3(C)CC[C@@H]2[C@@]1(C)CCCN1CCN(C)CC1` (some centres undefined), the IC50 [1] was > 80 µM, the IC50 [2] was > 80 µM and the IC50 [3] was > 80 µM.

In the case of `C=C(C)C1CC[C@H]2[C@@H]3CC[C@H]([C@H](C)CCC(=O)NC4CC4)[C@@]3(C)CC[C@@H]2[C@@]1(C)CCC(=O)NC1CC1` (some centres undefined), the IC50 [1] is reported as 17 µM, the IC50 [2] is reported as > 80 µM and the IC50 [3] is reported as > 80 µM.

In the case of `C=C(C)C1CC[C@H]2[C@@H]3CC[C@H]([C@H](C)CCC(=O)N4CCN(C(C)C)CC4)[C@@]3(C)CC[C@@H]2[C@@]1(C)CCC(=O)N1CCN(C(C)C)CC1` (some centres undefined), the IC50 [1] is reported as 1.66 µM, the IC50 [2] is reported as 9.91 µM and the IC50 [3] is reported as 6.68 µM. The IC50 [4] was 27 µM, the “Ratio IC50” value [5] was 16.3 and the “Ratio IC50” value [6] was 2.7. The “Ratio IC50” value [7] was 4.

With `CC(C)C1CC[C@H]2[C@@H]3CC[C@H]([C@H](C)CCC(=O)N4CCN(C)CC4)[C@@]3(C)CC[C@@H]2[C@@]1(C)CCC(=O)N1CCN(C)CC1` (some centres undefined) the IC50 [1] was 12.7 µM, the IC50 [2] was 13.8 µM and the IC50 [3] was 8.2 µM.

With `C=C(C)C1CC[C@H]2[C@@H]3CC[C@H]([C@H](C)CCC(=O)O)[C@@]3(C)CC[C@@H]2[C@@]1(C)CCC(=O)O` (some centres undefined) the IC50 [1] was > 80 µM, the IC50 [2] was > 80 µM and the IC50 [3] was > 80 µM.

For `C=C(C)C1CC[C@H]2[C@@H]3CC[C@H]([C@H](C)CCC(=O)N4CCN(C5CCCCC5)CC4)[C@@]3(C)CC[C@@H]2[C@@]1(C)CCC(=O)N1CCN(C2CCCCC2)CC1` (some centres undefined), the IC50 [1] was 12 µM, the IC50 [2] was 3.17 µM and the IC50 [3] was 17 µM.

Work on `C=C(C)C1CC[C@H]2[C@@H]3CC[C@H]([C@H](C)CCC(N)=O)[C@@]3(C)CC[C@@H]2[C@@]1(C)CCC(N)=O` (some centres undefined) yielded an IC50 [1] of 39.2 µM, an IC50 [2] of 36.7 µM and an IC50 [3] of 36.9 µM.

For `C=C(C)C1CC[C@H]2[C@@H]3CC[C@H]([C@H](C)CCC(=O)N4CCCC4)[C@@]3(C)CC[C@@H]2[C@@]1(C)CCC(=O)N1CCCC1` (some centres undefined), the IC50 [1] was 32.4 µM, the IC50 [2] was 23.7 µM and the IC50 [3] was 9.25 µM.

For `C=C(C)C1CC[C@H]2[C@@H]3CC[C@H]([C@H](C)CCC(=O)Nc4ccc(F)cc4)[C@@]3(C)CC[C@@H]2[C@@]1(C)CCC(=O)Nc1ccc(F)cc1` (some centres undefined), the IC50 [1] was > 80 µM, the IC50 [2] was > 80 µM and the IC50 [3] was > 80 µM.

In the case of `C[C@H](CCC(=O)O)[C@H]1CC[C@H]2[C@@H]3C[C@H](O)[C@@H]4C[C@H](O)CC[C@]4(C)[C@H]3CC[C@]12C` [HYODEOXYCHOLIC_ACID], the IC50 [1] is reported as > 80 µM, the IC50 [2] is reported as > 80 µM and the IC50 [3] is reported as > 80 µM.

With `C=C(C)C1CC[C@H]2[C@@H]3CC[C@H]([C@H](C)CCC(=O)N4CCN(c5ccccc5)CC4)[C@@]3(C)CC[C@@H]2[C@@]1(C)CCC(=O)N1CCN(c2ccccc2)CC1` (some centres undefined) the IC50 [1] was > 80 µM, the IC50 [2] was > 80 µM and the IC50 [3] was > 80 µM.

`C#CCNC(=O)CC[C@@H](C)[C@H]1CC[C@H]2[C@@H]3CCC(C(=C)C)[C@](C)(CCC(=O)NCC#C)[C@H]3CC[C@]12C` (some centres undefined) showed an IC50 [1] of 50.4 µM, an IC50 [2] of 85.5 µM and an IC50 [3] of 3.11 µM. The IC50 [4] was 61.9 µM and the “Ratio IC50” value [7] was 20.

For `C[C@H](CCC(=O)O)[C@H]1CC[C@H]2[C@@H]3CCC(C(C)(C)O)[C@](C)(CCC(=O)O)[C@H]3CC[C@]12C` (some centres undefined), the IC50 [1] was > 80 µM, the IC50 [2] was > 80 µM and the IC50 [3] was > 80 µM.

With `C=C(C)C1CC[C@H]2[C@@H]3CC[C@H]([C@H](C)CCC(=O)N4CCOCC4)[C@@]3(C)CC[C@@H]2[C@@]1(C)CCC(=O)N1CCOCC1` (some centres undefined) the IC50 [1] was 22.5 µM, the IC50 [2] was 16.6 µM and the IC50 [3] was 29.6 µM.

In the case of `C[C@H](CCC(=O)O)[C@H]1CC[C@H]2[C@@H]3CC[C@@H]4C[C@H](O)CC[C@]4(C)[C@H]3C[C@H](O)[C@]12C` [DEOXYCHOLIC ACID], the IC50 [1] is reported as > 80 µM, the IC50 [2] is reported as > 80 µM and the IC50 [3] is reported as > 80 µM.

With `C=C(C)C1CC[C@H]2[C@@H]3CC[C@H]([C@H](C)CCC(=O)N(CC)CC)[C@@]3(C)CC[C@@H]2[C@@]1(C)CCC(=O)N(CC)CC` (some centres undefined) the IC50 [1] was 11.1 µM, the IC50 [2] was 6.88 µM and the IC50 [3] was 14.2 µM. The IC50 [4] was 56.2 µM, the “Ratio IC50” value [5] was 5.1 and the “Ratio IC50” value [6] was 8.1. For the same compound, the “Ratio IC50” value [7] was 4.

In the case of `C[C@H](CCC(=O)O)[C@H]1CC[C@H]2[C@@H]3[C@H](O)C[C@@H]4C[C@H](O)CC[C@]4(C)[C@H]3CC[C@]12C` [CHENODIOL], the IC50 [1] is reported as > 80 µM, the IC50 [2] is reported as > 80 µM and the IC50 [3] is reported as > 80 µM.

For `C=C(C)C1CC[C@H]2[C@@H]3CC[C@H]([C@H](C)CCC(=O)NCc4ccccc4)[C@@]3(C)CC[C@@H]2[C@@]1(C)CCC(=O)NCc1ccccc1` (some centres undefined), the IC50 [1] was 13.6 µM, the IC50 [2] was 13 µM and the IC50 [3] was > 80 µM. For the same compound, the IC50 [4] was > 50 µM, the “Ratio IC50” value [5] was >3.7 and the “Ratio IC50” value [6] was >3.9.

In the case of `C=C(C)C1CC[C@H]2[C@@H]3CC[C@H]([C@H](C)CCC(=O)O)[C@@]3(C)CC[C@@H]2[C@@]1(C)CCC(=O)N1CCN(C)CC1` (some centres undefined), the IC50 [1] is reported as > 80 µM, the IC50 [2] is reported as > 80 µM and the IC50 [3] is reported as 53.9 µM.

In the case of `C=C(C)C1CC[C@H]2[C@@H]3CC[C@H]([C@H](C)CCC(=O)NC(C)C)[C@@]3(C)CC[C@@H]2[C@@]1(C)CCC(=O)NC(C)C` (some centres undefined), the IC50 [1] is reported as 7.41 µM, the IC50 [2] is reported as > 80 µM and the IC50 [3] is reported as > 80 µM. The IC50 [4] was > 50 µM and the “Ratio IC50” value [5] was >6.7.

For `C=C(C)C1CC[C@H]2[C@@H]3CC[C@H]([C@H](C)CCC(=O)N4CCN(c5ccccc5F)CC4)[C@@]3(C)CC[C@@H]2[C@@]1(C)CCC(=O)N1CCN(c2ccccc2F)CC1` (some centres undefined), the IC50 [1] was > 80 µM, the IC50 [2] was > 80 µM and the IC50 [3] was > 80 µM.

`C=C(C)C1CC[C@H]2[C@@H]3CC[C@H]([C@H](C)CCC(=O)N4CCN(CC)CC4)[C@@]3(C)CC[C@@H]2[C@@]1(C)CCC(=O)N1CCN(CC)CC1` (some centres undefined) showed an IC50 [1] of 8.47 µM, an IC50 [2] of 6.19 µM and an IC50 [3] of 12.5 µM.

For `C=C(C)C1CC[C@H]2[C@@H]3CC[C@H]([C@H](C)CCC(=O)n4cccn4)[C@@]3(C)CC[C@@H]2[C@@]1(C)CCC(=O)n1cccn1` (some centres undefined), the IC50 [1] was > 80 µM, the IC50 [2] was > 80 µM and the IC50 [3] was > 80 µM.

With `C=C(C)C1CC[C@H]2[C@@H]3CC[C@H]([C@H](C)CCC(=O)OC)[C@@]3(C)CC[C@@H]2[C@@]1(C)CCC(=O)N1CCN(C)CC1` (some centres undefined) the IC50 [1] was 41.8 µM, the IC50 [2] was 13.7 µM and the IC50 [3] was 31.7 µM.
